“Also recorded” adds a separate entry of the source. Where a SMILES comes first, the peptide text is derived from it. The star is where a group is joined. Cbz = O=C(OCc1ccccc1)*; CH2F = FC*
Legend:
[1] = test system: motor neurons on mutant SOD1 astrocyte layer; assay: Motor neuron / mutant SOD1 astrocyte co-cultures incubated with CNQX or Fas-Fc (FIG. 11c,d); format: cell-based, mouse; conditions: 100 μM CNQX
Procedure: FIG. 11a-e. Glutamate, Fas ligand and several major cytokines and chemokines are not involved in the toxicity of mutant SOD1 astrocytes to motor neurons. […] (b) 14 d-old-confluent ^NTgAML or ^G93AAML were incubated with 200 μM of glutamate. Then, the extracellular concentration of glutamate was monitored by HPLC at 0, 0.5, 1, 3, 6 and 24 hr. No interaction was found between the timing of glutamate decrease in the medium and the genotypes of the two astrocyte layers (F[2.241]=0.430; P=0.826; ANOVA). […] (e) The relative contents of 19 cytokines/chemokines were screened by array in CMd from G93A and NTg astrocytes. The genotypic differences were highlighted in bold. […]
Results are expressed as mean±standard error of the mean (s.e.m.) for 3-6 independent experiments. […] Each coverslip was counted at ×100 under fluorescent examination in its entirety. To determine the proportion of dying or apoptotic neurons, ≧750 MAP2^+ neurons were counted per culture. Differences between means were analyzed by a two-tailed Student's t-test whereas among means by one- or two-way ANOVA with the different types of mice, treatment doses, or time as the independent factors. […] For morphometry studies, differences were analyzed by Kolmogorov-Smimov test (www.physics.csbsju.edu/stats/KS-test.n.plot_form.html). […]

ESMN plated on G93A AML = assay: Co-culture of embryonic stem cell-derived motor neurons (ESMN) on mutant SOD1 G93A astrocyte monolayers with pharmacological treatment; survival and death counted at 7 d; format: cell-based, mouse; conditions: 7 d post-plating, V5 50-200 μM, zVAD-fmk 10-20 μM; for percentages of surviving ESMN: ESMN on G93A AML, vs vehicle; for percentages of ESMN / MAP2+ neurons labeled with EthD (dying cells) / percentages of embryonic stem cell-derived MAP2+/fractin+ neurons (apoptosis): G93A AML co-cultures, vs vehicle (DMSO), added daily
Procedure: Glial monolayers were prepared from spinal cord from transgenic SOD^G93A, SOD^G37R, SOD^G85R, SOD^WT of newborn pups as described by Silva and collaborators^31. Cell suspensions were plated in glial medium: Dubelco Modified Eagle's medium (DMEM; Invitrogen, Carlsbad, Calif.) containing 10% fetal bovine serum (FBS; Invitrogen), 100 U/mL penicillin and 100 μg/mL streptomycin (penicillin/streptomycin, Invitrogen). After 2 weeks, glial cultures contained 95% of glial acidic fibrillary protein (GFAP)^+ astrocytes, 5% of CD11b^+ microglia, and no neuron or oligodendrocyte as indicated by the lack of respectively MAP2 or 2′-3′-cyclic nucleotide phosphohydrolase immunoreactivity (data not shown). To eliminate residual microglia, 2-week-old flasks were agitated (200 rpm; 6 h) and astrocytes were detached by 0.25% trypsin (Invitrogen) and plated onto coverslips at a density of 20,000 cells/cm^2.
Cells were derived from Hlxb9-GFP1Tmj transgenic mice^13 and differentiated into ESMN as described previously^13. To form EBs, cells were grown for 2 d in 1:1 (v/v) DMEM/Ham's F-12 media (Invitrogen) medium containing B27 supplement (Invitrogen), penicillin/streptomycin and 0.1 mM β-mercaptoethanol (Sigma, Saint Louis, Mo.). They were treated with 1 μM retinoic acid (Sigma) and 400 nM sonic hedgehog agonist (Hh-Ag1.3, Curls Inc., Cambridge, Mass.) for 5 d and dissociated with papain (Worthington, Lakewood, N.J.). Cells were plated at 1,600 eGFP-positive cells/cm^2 in motor neuron medium: Neurobasal medium (Invitrogen) containing 2% horse serum (heat inactivated; Invitrogen), B27 supplement, 0.5 mM glutamine (Invitrogen), 25 μM β-mercaptoethanol, penicillin/streptomycin. To obtain LH2-positive neurons, once EBs were formed they were treated with 0.1 μM retinoic acid and 15 ng/mL bone morphogenetic protein 4 (R&D systems, Minneapolis, Minn.) for 5 d before papain dissociation. Then, 1,500 cells/cm^2 were plated onto astrocyte monolayer in motor neuron medium.
For EthD (Molecular Probes) estimation of death, cells were incubated with 2 μM EthD (diluted in D-PBS; 45 min; RT) as we previously reported^36. For immunocytochemistry and the other cell labelings, cells were processed as we previously described^36. Primary antibodies used were: rabbit polyclonal anti-eGFP (1:2000; Molecular Probes), anti-fractin (1:5000; BD Pharmingen, San Jose, Calif.), GABA (1:2000; Chemicon), anti-Lim2 (1:150; from Dr. Jessell's lab), and anti-HB9 (1:1000 from T M Jessell's lab); goat polyclonal anti-ChAT (1:100; Chemicon, Temecula, Calif.); sheep polyclonal anti-SOD1 (1:500; Calbiochem), rabbit anti-protein gene product 9.5 (PG-P 9.5; 1:2000; Chemicon) and mouse monoclonal anti-MAP-2 (1:1000; Chemicon), anti-GFAP (1:1000; Sigma), anti-Islet 1/2 (1:100; from TM Jessell's lab), anti-LH2 (1:2; from T M Jessell's lab), and anti-SMI-32 for non-phosphorylated neurofilament heavy chain (1:1000, Sternberger monoclonals, Lutherville, Md.). Terminal deoxy-UTP nick-end labeling (Tunel, in situ cell death detection kit, Roche Diagnostic, Indianapolis, Ind.) were performed following the manufacturer's recommendations.
zVAD-fmk and V5 (Sigma) were dissolved in DMSO and add to co-cultures to final concentrations ranging from 10-20 μM for the former and 50-200 μM for the latter. Fresh drugs were added daily. Cell survival and death were evaluated at 7 d by counting eGFP^+/HB9^+ neurons, and EthD- and fractin-labeled cells as described below.
Results are expressed as mean±standard error of the mean (s.e.m.) for 3-6 independent experiments. Each experiment corresponds ≧3 transgenic and non-transgenic co-cultures from the same litter and 3 coverslips per time point and per condition. Each coverslip was counted at ×100 under fluorescent examination in its entirety. To determine the proportion of dying or apoptotic neurons, ≧750 MAP2^+ neurons were counted per culture. […]

Row | Compound | mutant SOD1 astrocyte-mediated motor neuron death [1] | percentages of surviving ESMN (ESMN plated on G93A AML) | percentages of surviving ESMN (ESMN plated on G93A AML; listed as zVAD.fmk) | percentages of ESMN / MAP2+ neurons labeled with EthD (dying cells) (ESMN plated on G93A AML) | percentages of embryonic stem cell-derived MAP2+/fractin+ neurons (apoptosis) (ESMN plated on G93A AML)
1 | N#Cc1cc2[nH]c(=O)c(=O)[nH]c2cc1[N+](=O)[O-] [CNQX] | did not influence | – | – | – | –
2 | COC(=O)C[C@H](NC(=O)[C@H](C)NC(=O)[C@@H](NC(=O)OCc1ccccc1)C(C)C)C(=O)CF [zVAD-fmk] (Cbz-Val-Ala-Asp(OMe)-CH2F) | – | failed to improve | had no effect | had no effect | decreased
3 | VPMLK [V5] | – | augmented; also recorded: increases | – | diminished; also recorded: decreases | reduced specifically; also recorded: decreases; also recorded: inhibited apoptosis

Source: US9765297B2, “Stem cell-based culture system for drug development” (THE TRUSTEES OF COLUMBIA UNIVERSITY IN THE CITY OF NEW YORK, priority 2007, dated 2017)
